Experimental findings from US9434743B2, “Indazole derivatives” (TAKEDA PHARMACEUTICAL COMPANY LIMITED, priority 2012, dated 2016) are described below.

The structures appear in SMILES notation.

For experiment [1], the target named is T1, human MetAP2 enzyme (Homo sapiens, UniProt P50579). The experiment can be described thus: MetAP2 enzyme assay, enzyme complexed with cobalt ions. Particulars: MetAP2 Co pIC50, MetAP2 enzyme complexed with cobalt ions; Met-AMC substrate at Km.
Procedure: DNA encoding the full-length sequence of human MetAP2 enzyme is amplified by PCR and cloned into a pFastBac expression vector (Invitrogen). Recombinant baculovirus incorporating the MetAP2 construct is generated by transposition using the Bac-to-Bac system (Invitrogen). The expression of recombinant protein is carried out by infection of Spodoptera frugiperda Sf9 cells (Invitrogen) in 5 L Wave Bioreactors (Wave Biotech). Recombinant protein is isolated from cellular extracts by binding to an SP Hitrap Fast Flow or SP Sepharose (Sigma) column, and the protein is eluted using a NaCl gradient. Partially purified extracts of MetAP2 are further purified by an AKTA FPLC over a Superdex-200 column (GE). The purity of MetAP2 protein is determined on denaturing SDS-PAGE gel.
The results for each well are expressed as percent inhibition and calculated using the equation:
Experiment [2] has as its target T1, human MetAP2 enzyme. The experiment can be described thus: MetAP2 enzyme assay, enzyme complexed with manganese ions. The conditions noted are these: MetAP2 Mn pIC50, MetAP2 enzyme complexed with manganese ions; Met-AMC substrate at Km.

T1 sequence (P50579 whole entry): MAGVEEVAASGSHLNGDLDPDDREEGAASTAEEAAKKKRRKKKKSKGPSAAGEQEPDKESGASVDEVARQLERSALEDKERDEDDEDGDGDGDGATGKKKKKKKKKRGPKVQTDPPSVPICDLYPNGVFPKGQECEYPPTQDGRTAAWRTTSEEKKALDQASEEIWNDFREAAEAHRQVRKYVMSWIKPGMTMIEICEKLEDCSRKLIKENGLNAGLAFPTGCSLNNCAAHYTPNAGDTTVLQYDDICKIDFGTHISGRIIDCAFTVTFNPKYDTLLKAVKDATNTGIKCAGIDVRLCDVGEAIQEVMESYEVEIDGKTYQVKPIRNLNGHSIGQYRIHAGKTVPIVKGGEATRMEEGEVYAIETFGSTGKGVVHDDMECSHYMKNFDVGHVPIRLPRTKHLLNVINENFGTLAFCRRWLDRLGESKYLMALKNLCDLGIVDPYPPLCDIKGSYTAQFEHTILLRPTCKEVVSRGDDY

For the compound `CS(=O)(=O)c1ccccc1-c1cc(C(F)(F)F)cc2[nH]ncc12` [Example 365, 4-(2-(methylsulfonyl)phenyl)-6-(trifluoromethyl)-1H-indazole], the IC50 – broadly, the point on the concentration scale where inhibition reaches its midpoint – in experiment [1] was 1580 nM; in experiment [2], 79.4 nM.

`Nc1ncc(-c2cc(C(F)(F)F)cc3[nH]ncc23)c2cccnc12` [Example 142, 5-(6-(trifluoromethyl)-1H-indazol-4-yl)-1,7-naphthyridin-8-amine]: the figures for the IC50 in experiment [1] and in experiment [2] were 25.1 nM and 7.94 nM, respectively.

Consider `Cc1nn(CC2(C)COC2)c(C)c1-c1cc(C(F)(F)F)cc2[nH]ncc12` [Example 380, 4-(3,5-dimethyl-1-((3-methyloxetan-3-yl)methyl)-1H-pyrazol-4-yl)-6-(trifluoromethyl)-1H-indazole], for which the figures for the IC50 in experiment [1] and in experiment [2] were 398 nM and 25.1 nM, respectively.

In the case of `CC(=O)Nc1cccnc1-c1cc(C(F)(F)F)cc2[nH]ncc12` [Example 218, N-(2-(6-(trifluoromethyl)-1H-indazol-4-yl)pyridin-3-yl)acetamide], the IC50 was 2000 nM in experiment [1] and 251 nM in experiment [2].

For `CC(C)CNC(=O)c1cccc(-c2cc(C(F)(F)F)cc3[nH]ncc23)c1` [Example 28, N-isobutyl-3-(6-(trifluoromethyl)-1H-indazol-4-yl)benzamide], the IC50 was 158 nM in experiment [1] and 25.1 nM in experiment [2].

In the case of `FC(F)(F)c1cc(-c2ncn3ccccc23)c2cn[nH]c2c1` [Example 154, 4-(imidazo[1,5-a]pyridin-1-yl)-6-(trifluoromethyl)-1H-indazole], the IC50 is 100 nM in experiment [1] and 15.8 nM in experiment [2].

Regarding `COc1cc(C)c(-c2cc(C(F)(F)F)cc3[nH]ncc23)cn1` [Example 253, 4-(6-methoxy-4-methylpyridin-3-yl)-6-(trifluoromethyl)-1H-indazole], the IC50 in experiment [1] is 63.1 nM; in experiment [2], 10 nM.

Take `FC(F)(F)c1cc(-c2cnc3ccnn3c2)c2cn[nH]c2c1` [Example 275, 6-(6-(trifluoromethyl)-1H-indazol-4-yl)pyrazolo[1,5-a]pyrimidine]: the IC50 in experiment [1] is 126 nM; in experiment [2] it was 5.01 nM.

On to `Cn1ncc(-c2cc(C(F)(F)F)cc3[nH]ncc23)c1N` [Example 165, 1-methyl-4-(6-(trifluoromethyl)-1H-indazol-4-yl)-1H-pyrazol-5-amine], for which the results for the IC50 in experiment [1] and in experiment [2] were 1000 nM and 63.1 nM, respectively.

In the case of `Cc1nc(N2CCN[C@H](C)C2)ccc1-c1cc(C(F)(F)F)cc2[nH]ncc12` [Example 414, (R)-4-(2-methyl-6-(3-methylpiperazin-1-yl)pyridin-3-yl)-6-(trifluoromethyl)-1H-indazole], the IC50 in experiment [1] is 10 nM; in experiment [2], 3.98 nM.

Turning to `N#Cc1ccccc1-c1cc(C(F)(F)F)cc2[nH]ncc12` [Example 52, 2-(6-(trifluoromethyl)-1H-indazol-4-yl)benzonitrile], the 50% inhibitory concentration (IC50) in experiment [1] was 126 nM; in experiment [2], 12.6 nM.

On to `FC(F)(F)c1cc(-c2cccc3ncccc23)c2cn[nH]c2c1` [Example 101, 5-(6-(trifluoromethyl)-1H-indazol-4-yl)quinoline], for which the IC50 in experiment [1] was 31.6 nM; in experiment [2], 10 nM.

`FC(F)(F)c1cc(-c2cnc3[nH]ccc3n2)c2cn[nH]c2c1` [Example 240, 2-(6-(trifluoromethyl)-1H-indazol-4-yl)-5H-pyrrolo[2,3-b]pyrazine]: the figures for the IC50 in experiment [1] and in experiment [2] were 158 nM and 5.01 nM, respectively.

As to `Nc1cc(Cl)cnc1-c1cc(C(F)(F)F)cc2[nH]ncc12` [Example 216, 5-chloro-2-(6-(trifluoromethyl)-1H-indazol-4-yl)pyridin-3-amine], the figures for the IC50 in experiment [1] and in experiment [2] were 398 nM and 10 nM, respectively.

Regarding `FC(F)(F)c1cc(-c2ccncc2Cl)c2cn[nH]c2c1` [Example 49, 4-(3-chloropyridin-4-yl)-6-(trifluoromethyl)-1H-indazole], the IC50 in experiment [1] was 200 nM; in experiment [2], 15.8 nM.

With `NS(=O)(=O)c1ccc(-c2cc(C(F)(F)F)cc3[nH]ncc23)c(F)c1` [Example 342, 3-fluoro-4-(6-(trifluoromethyl)-1H-indazol-4-yl)benzenesulfonamide], the IC50 in experiment [1] was 39.8 nM; in experiment [2], 6.31 nM.

Turning to `Nc1ncc(-c2cc(C(F)(F)F)cc3[nH]ncc23)cc1C(=O)NCCO` [Example 230, 2-amino-N-(2-hydroxyethyl)-5-(6-(trifluoromethyl)-1H-indazol-4-yl)nicotinamide], the results for the IC50 in experiment [1] and in experiment [2] were 158 nM and 7.94 nM, respectively.

`CN1CCN(C(=O)c2cc(-c3cc(C(F)(F)F)cc4[nH]ncc34)c(=O)n(C)c2)CC1` [Example 375, 1-methyl-5-(4-methylpiperazine-1-carbonyl)-3-(6-(trifluoromethyl)-1H-indazol-4-yl)pyridin-2(1H)-one]: the concentration for half-maximal inhibition (IC50) in experiment [1] was 126 nM; in experiment [2], 10 nM.

In the case of `COc1cncc(-c2cc(C(F)(F)F)cc3[nH]ncc23)c1` [Example 42, 4-(5-methoxypyridin-3-yl)-6-(trifluoromethyl)-1H-indazole], the IC50 in experiment [1] was 63.1 nM; in experiment [2], 6.31 nM.

Consider `N#Cc1ncc(-c2cc(C(F)(F)F)cc3[nH]ncc23)cn1` [Example 198, 5-(6-(trifluoromethyl)-1H-indazol-4-yl)pyrimidine-2-carbonitrile], for which the IC50 was 631 nM in experiment [1] and 12.6 nM in experiment [2].

For `OCc1ccc(Cl)c(-c2cc(C(F)(F)F)cc3[nH]ncc23)c1` [Example 128, (4-chloro-3-(6-(trifluoromethyl)-1H-indazol-4-yl)phenyl)methanol], the IC50 was 39.8 nM in experiment [1] and 12.6 nM in experiment [2].

Regarding `COc1ccc(CC(=O)N2CCOCC2)cc1-c1cc(C(F)(F)F)cc2[nH]ncc12` [Example 316, 2-(4-methoxy-3-(6-(trifluoromethyl)-1H-indazol-4-yl)phenyl)-1-morpholinoethanone], the IC50 was 50.1 nM in experiment [1] and 10 nM in experiment [2].

As to `COc1cc(-c2cc(C(F)(F)F)cc3[nH]ncc23)c(OC)nn1` [Example 248, 4-(3,6-dimethoxypyridazin-4-yl)-6-(trifluoromethyl)-1H-indazole], the IC50 in experiment [1] was 63.1 nM; in experiment [2] it was 5.01 nM.

`FC(F)(F)c1cc(-c2ccc3ccncc3c2)c2cn[nH]c2c1` [Example 26, 7-(6-(trifluoromethyl)-1H-indazol-4-yl)isoquinoline]: the values for the IC50 in experiment [1] and in experiment [2] were 63.1 nM and 12.6 nM, respectively.

For the compound `COc1ccc(-c2cc(C(F)(F)F)cc3[nH]ncc23)c(C)n1` [Example 249, 4-(6-methoxy-2-methylpyridin-3-yl)-6-(trifluoromethyl)-1H-indazole], the results for the IC50 in experiment [1] and in experiment [2] were 79.4 nM and 12.6 nM, respectively.

Turning to `CN1C(=O)COc2ccc(-c3cc(C(F)(F)F)cc4[nH]ncc34)cc21` [Example 296, 4-methyl-6-(6-(trifluoromethyl)-1H-indazol-4-yl)-2H-benzo[b][1,4]oxazin-3(4H)-one], the IC50 is 20 nM in experiment [1] and 6.31 nM in experiment [2].

For `O=C(Cn1cncn1)NCc1ccccc1-c1cc(C(F)(F)F)cc2[nH]ncc12` [Example 202, 2-(1H-1,2,4-triazol-1-yl)-N-(2-(6-(trifluoromethyl)-1H-indazol-4-yl)benzyl)acetamide], the IC50 in experiment [1] was 501 nM; in experiment [2], 25.1 nM.

Consider `O=C(NCCO)c1cc(-c2cc(C(F)(F)F)cc3[nH]ncc23)ccn1` [Example 308, N-(2-hydroxyethyl)-4-(6-(trifluoromethyl)-1H-indazol-4-yl)picolinamide], for which the IC50 in experiment [1] was 79.4 nM; in experiment [2], 6.31 nM.

With `COc1ccc(C(N)=O)cc1-c1cc(C(F)(F)F)cc2[nH]ncc12` [Example 273, 4-methoxy-3-(6-(trifluoromethyl)-1H-indazol-4-yl)benzamide], the IC50 was 20 nM in experiment [1] and 3.98 nM in experiment [2].

With `COc1ncc(N)cc1-c1cc(C(F)(F)F)cc2[nH]ncc12` [Example 187, 6-methoxy-5-(6-(trifluoromethyl)-1H-indazol-4-yl)pyridin-3-amine], the values for the IC50 in experiment [1] and in experiment [2] were 79.4 nM and 7.94 nM, respectively.

With `CNC(=O)c1ccc(F)cc1-c1cc(C(F)(F)F)cc2[nH]ncc12` [Example 102, 4-fluoro-N-methyl-2-(6-(trifluoromethyl)-1H-indazol-4-yl)benzamide], the IC50 in experiment [1] was 631 nM; in experiment [2] it was 79.4 nM.

Take `NC(=O)c1ccc(-c2cc(C(F)(F)F)cc3[nH]ncc23)cc1` [Example 7, 4-(6-(trifluoromethyl)-1H-indazol-4-yl)benzamide]: the figures for the IC50 in experiment [1] and in experiment [2] were 25.1 nM and 5.01 nM, respectively.

On to `NC(=O)c1ccc(F)c(-c2cc(C(F)(F)F)cc3[nH]ncc23)c1` [Example 326, 4-fluoro-3-(6-(trifluoromethyl)-1H-indazol-4-yl)benzamide], for which the IC50 in experiment [1] is 31.6 nM; in experiment [2] it was 12.6 nM.

Regarding `Cc1noc(C)c1-c1cc(C(F)(F)F)cc2[nH]ncc12` [Example 80, 3,5-dimethyl-4-(6-(trifluoromethyl)-1H-indazol-4-yl)isoxazole], the values for the IC50 in experiment [1] and in experiment [2] were 79.4 nM and 7.94 nM, respectively.

Regarding `Cc1cccnc1-c1cc(C(F)(F)F)cc2[nH]ncc12` [Example 135, 4-(3-methylpyridin-2-yl)-6-(trifluoromethyl)-1H-indazole], the IC50 was 158 nM in experiment [1] and 10 nM in experiment [2].

With `COc1ncccc1-c1cc(C(F)(F)F)cc2[nH]ncc12` [Example 53, 4-(2-methoxypyridin-3-yl)-6-(trifluoromethyl)-1H-indazole], the results for the IC50 in experiment [1] and in experiment [2] were 39.8 nM and 5.01 nM, respectively.

`O=C(O)Cn1cc(-c2cc(C(F)(F)F)cc3[nH]ncc23)cn1` [Example 261, 2-(4-(6-(trifluoromethyl)-1H-indazol-4-yl)-1H-pyrazol-1-yl)acetic acid]: the results for the IC50 in experiment [1] and in experiment [2] were 1000 nM and 39.8 nM, respectively.
